Key:
morningglory = assay: Test B pre/postemergence morningglory; type: in vivo, Ipomoea hederacea
How it was run: (§1)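 Response is a visual 0-to-10 score relative to untreated plants, where 0 means no effect and 10 means complete control, taken twelve to sixteen days after application. Treatments went onto soil at planting and onto foliage of 1- to 4-leaf plants, using a surfactant-containing non-phytotoxic solvent.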

surinam grass = assay: Test B pre/postemergence surinam grass; type: in vivo, Brachiaria decumbens
How it was run: as §1

purple nutsedge = assay: Test B pre/postemergence purple nutsedge; type: in vivo, Cyperus rotundus
How it was run: as §1

cocklebur = assay: Test B pre/postemergence cocklebur; type: in vivo, Xanthium strumarium
How it was run: as §1

wheat = assay: Test B pre/postemergence wheat; type: in vivo, Triticum aestivum; conditions: for Plant response rating, Wheat: Rate 250 g/ha
How it was run: as §1

giant foxtail = assay: Test B pre/postemergence giant foxtail; type: in vivo, Setaria faberii
How it was run: as §1

bedstraw = assay: Test B pre/postemergence bedstraw; type: in vivo, Galium aparine
How it was run: as §1

blackgrass = assay: Test B pre/postemergence blackgrass; type: in vivo, Alopecurus myosuroides
How it was run: as §1

duck salad = assay: Test B flood test duck salad; type: in vivo, Heteranthera limosa
How it was run: (§2)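 Plants were grown to the 2-leaf stage before treatment with test chemical, then held in a greenhouse for twelve to sixteen days. Injury was visually rated against untreated controls on a 0–10 scale, where 0 is no effect and 10 is complete control.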

wild oat = assay: Test B pre/postemergence wild oat; type: in vivo, Avena fatua; conditions: for Plant response rating, Wild oats: Rate 250 g/ha
How it was run: as §1

pigweed = assay: Test B pre/postemergence pigweed; type: in vivo, Amaranthus retroflexus
How it was run: as §1

smallflower flatsedge = assay: Test B flood test smallflower flatsedge; type: in vivo, Cyperus difformis
How it was run: as §2

sugar beet = assay: Test B pre/postemergence sugar beet; type: in vivo, Beta vulgaris; conditions: for Plant response rating, Sugarbeets: Rate 250 g/ha
How it was run: as §1

rape = assay: Test B pre/postemergence rape; type: in vivo, Brassica napus
How it was run: as §1

soybean = assay: Test B pre/postemergence soybean; type: in vivo, Glycine max
How it was run: as §1

bamyardgrass = assay: Test B flood test barnyardgrass; type: in vivo, Echinochloa crus-galli
How it was run: as §2

[1] = Postemergence, Rate 125 g/ha, scale of 0 to 10 where 0 is no effect and 10 is complete control
[2] = Postemergence, Rate 250 g/ha, scale 0 to 10, 0 no effect, 10 complete control
[3] = Preemergence, Rate 62 g/ha, scale 0 to 10 (0 no effect, 10 complete control)
[4] = Preemergence, Rate 125 g/ha, scale 0 to 10 (0 no effect, 10 complete control)
[5] = Preemergence, Rate 250 g/ha, scale of 0 to 10 where 0 is no effect and 10 is complete control
[6] = Preemergence, Rate 500 g/ha, scale 0 to 10 (0 no effect, 10 complete control)
[7] = Rate 62 g/ha, Postemergence, scale of 0 to 10 where 0 is no effect and 10 is complete control
[8] = Rate 500 g/ha, Postemergence, scale 0 to 10, 0 no effect, 10 complete control
[9] = Postemergence, Rate 62 g/ha, scale 0 to 10, 0 is no effect, 10 is complete control
[10] = Rate 125 g/ha, Postemergence, scale 0 to 10, 0 no effect, 10 complete control
[11] = Preemergence, Rate 125 g/ha, 0 is no effect, 10 is complete control
[12] = Preemergence, scale of 0 to 10 where 0 is no effect and 10 is complete control
[13] = Postemergence, scale 0 to 10, 0 is no effect, 10 is complete control
[14] = Postemergence (flood test species), Rate 125 g/ha, scale of 0 to 10 where 0 is no effect and 10 is complete control
[15] = Rate 62 g/ha, Postemergence section, flood test species, scale of 0 to 10 where 0 is no effect and 10 is complete control
[16] = Rate 500 g/ha, listed under Postemergence (flood test species), scale 0 to 10, 0 no effect, 10 complete control
[17] = flood test, listed under Postemergence, Rate 250 g/ha, scale 0 to 10, 0 no effect, 10 complete control
[18] = Rate 250 g/ha, Postemergence, scale 0 to 10, 0 is no effect, 10 is complete control

Compound: CC(C)N(C(=O)n1oc(=O)n(C(C)C)c1=O)c1ccc(Cl)cc1 [Compound 114]
- Morningglory plant response rating (morningglory; [1]): 4
- Morningglory plant response rating (morningglory; [2]): 4
- Morningglory plant response rating (morningglory; [3]): 0
- Plant response rating, Morningglory (morningglory; [4]): 0
- Plant response rating, Morningglory (morningglory; [5]): 0
- Morningglory plant response rating (morningglory; [6]): 1
- Morningglory plant response rating (morningglory; [7]): 1
- Morningglory plant response rating (morningglory; [8]): 8
- B. signalgrass plant response rating (surinam grass; [9]): 0
- B. signalgrass plant response rating (surinam grass; [2]): 5
- B. signalgrass plant response rating (surinam grass; [3]): 0
- Plant response rating, B. signalgrass (surinam grass; [4]): 0
- Plant response rating, B. signalgrass (surinam grass; [5]): 7
- B. signalgrass plant response rating (surinam grass; [6]): 10
- B. signalgrass plant response rating (surinam grass; [10]): 0
- B. signalgrass plant response rating (surinam grass; Rate 500 g/ha, Postemergence, scale of 0 to 10 where 0 is no effect and 10 is complete control): 7
- Nutsedge plant response rating (purple nutsedge; [1]): 0
- Nutsedge plant response rating (purple nutsedge; [2]): 0
- Nutsedge plant response rating (purple nutsedge; [3]): 0
- Plant response rating, Nutsedge (purple nutsedge; [4]): 0
- Plant response rating, Nutsedge (purple nutsedge; [5]): 0
- Nutsedge plant response rating (purple nutsedge; [6]): 0
- Nutsedge plant response rating (purple nutsedge; [7]): 0
- Nutsedge plant response rating (purple nutsedge; [8]): 0
- Cocklebur plant response rating (cocklebur; [1]): 0
- Cocklebur plant response rating (cocklebur; [2]): 0
- Cocklebur plant response rating (cocklebur; [3]): 0
- Plant response rating, Cocklebur (cocklebur; [4]): 0
- Plant response rating, Cocklebur (cocklebur; [5]): 0
- Cocklebur plant response rating (cocklebur; [7]): 0
- Cocklebur plant response rating (cocklebur; [8]): 0
- Wheat plant response rating (wheat; [1]): 0
- Wheat plant response rating (wheat; [3]): 0
- Wheat plant response rating (0 to 10 scale) (wheat; [11]): 0
- Plant response rating, Wheat (wheat; [12]): 2
- Wheat plant response rating (wheat; [6]): 8
- Wheat plant response rating (wheat; [7]): 0
- Plant response rating, Wheat (wheat; [13]): 0
- Wheat plant response rating (wheat; [8]): 0
- Giant foxtail plant response rating (giant foxtail; [1]): 9
- Giant foxtail plant response rating (giant foxtail; [2]): 9
- Giant foxtail plant response rating (giant foxtail; [3]): 5
- Plant response rating, Giant foxtail (giant foxtail; [4]): 9
- Plant response rating, Giant foxtail (giant foxtail; [5]): 10
- Giant foxtail plant response rating (giant foxtail; [6]): 10
- Giant foxtail plant response rating (giant foxtail; [7]): 5
- Giant foxtail plant response rating (giant foxtail; [8]): 9
- Bedstraw plant response rating (bedstraw; [9]): 3
- Bedstraw plant response rating (bedstraw; [2]): 6
- Bedstraw plant response rating (bedstraw; [3]): 0
- Plant response rating, Bedstraw (bedstraw; [4]): 0
- Plant response rating, Bedstraw (bedstraw; [5]): 0
- Bedstraw plant response rating (bedstraw; [6]): 0
- Bedstraw plant response rating (bedstraw; [10]): 6
- Bedstraw plant response rating (bedstraw; [8]): 7
- Blackgrass plant response rating (blackgrass; [1]): 2
- Blackgrass plant response rating (blackgrass; [2]): 7
- Blackgrass plant response rating (blackgrass; [3]): 6
- Plant response rating, Blackgrass (blackgrass; [4]): 8
- Plant response rating, Blackgrass (blackgrass; [5]): 10
- Blackgrass plant response rating (blackgrass; [6]): 10
- Blackgrass plant response rating (blackgrass; [7]): 0
- Blackgrass plant response rating (blackgrass; [8]): 8
- Ducksalad plant response rating (duck salad; [14]): 0
- Ducksalad plant response rating (duck salad; [15]): 0
- Ducksalad plant response rating (duck salad; [16]): 0
- Ducksalad plant response rating (duck salad; [17]): 0
- Wild oats plant response rating (wild oat; [1]): 0
- Wild oats plant response rating (wild oat; [3]): 5
- Wild oats plant response rating (0 to 10 scale) (wild oat; [11]): 7
- Plant response rating, Wild oats (wild oat; [12]): 9
- Wild oats plant response rating (wild oat; [6]): 10
- Wild oats plant response rating (wild oat; [7]): 0
- Plant response rating, Wild oats (wild oat; [13]): 2
- Wild oats plant response rating (wild oat; [8]): 2
- Redroot pigweed plant response rating (pigweed; [1]): 2
- Redroot pigweed plant response rating (pigweed; [3]): 5
- Plant response rating, Redroot pigweed (pigweed; [4]): 8
- Plant response rating, Redroot pigweed (pigweed; [5]): 10
- Redroot pigweed plant response rating (pigweed; [6]): 10
- Redroot pigweed plant response rating (pigweed; [7]): 0
- Plant response rating, Redroot pigweed (pigweed; [18]): 3
- Redroot pigweed plant response rating (pigweed; [8]): 3
- S. Flatsedge plant response rating (smallflower flatsedge; [14]): 0
- S. Flatsedge plant response rating (smallflower flatsedge; [15]): 0
- Plant response rating, S. Flatsedge (smallflower flatsedge; Rate 250 g/ha, Postemergence (flood test), scale 0 to 10, 0 is no effect, 10 is complete control): 0
- S. Flatsedge plant response rating (smallflower flatsedge; [16]): 0
- Sugarbeets plant response rating (sugar beet; [1]): 3
- Sugarbeets plant response rating (sugar beet; [3]): 4
- Sugarbeets plant response rating (0 to 10 scale) (sugar beet; [11]): 6
- Plant response rating, Sugarbeets (sugar beet; [12]): 7
- Sugarbeets plant response rating (sugar beet; [6]): 7
- Sugarbeets plant response rating (sugar beet; [7]): 3
- Plant response rating, Sugarbeets (sugar beet; [13]): 4
- Sugarbeets plant response rating (sugar beet; [8]): 5
- Rape plant response rating (rape; [1]): 3
- Rape plant response rating (rape; [2]): 3
- Rape plant response rating (rape; [3]): 0
- Plant response rating, Rape (rape; [4]): 3
- Plant response rating, Rape (rape; [5]): 6
- Rape plant response rating (rape; [6]): 10
- Rape plant response rating (rape; [7]): 3
- Rape plant response rating (rape; [8]): 7
- Soybean plant response rating (soybean; [1]): 3
- Soybean plant response rating (soybean; [3]): 0
- Plant response rating, Soybean (soybean; [4]): 0
- Plant response rating, Soybean (soybean; [5]): 0
- Soybean plant response rating (soybean; [6]): 3
- Soybean plant response rating (soybean; [7]): 3
- Plant response rating, Soybean (soybean; [18]): 5
- Soybean plant response rating (soybean; [8]): 7
- Barnyardgrass plant response rating (bamyardgrass; [9]): 0
- Barnyardgrass plant response rating (bamyardgrass; Rate 125 g/ha, Postemergence section (flood test species), scale 0 to 10, 0 no effect, 10 complete control): 0
- Barnyardgrass plant response rating (bamyardgrass; [16]): 0
- Barnyardgrass plant response rating (bamyardgrass; [17]): 0

From patent publication US6737383B1, “Herbicidal oxadiazolidines” (priority 1999, dated 2004)
